Consider 19 compounds from patent US11485728B2, “Small molecules for the treatment of autoimmune diseases and cancer” (Athos Therapeutics, Inc., priority 2020, dated 2022).

The nature of series [1]: In-vitro half-life in human liver microsomes. The format is in vitro ADME. To be noted: Human liver microsomes 0.5 mg/mL; 1 μg/mL drug; NRS; read-out: Metabolic Half-life. The protocol:
(§1) In each of the species (human, rat, mouse) of liver matrix to be tested, a working concentration of 2 μg/mL was prepared of each test article from the 0.5 mg/mL DMSO stock solution by adding 3 μL of 0.5 mg/mL test article stock solution to 747 μL of the 1 mg/mL liver matrix. Incubation was performed at 37±2° C. with gentle, continuous mixing in shaking water bath in 2.0 mL-well capacity 96-Deepwell plates (96-DWP). Samples were retrieved in duplicate at the following time points: 0, 5, 10, 15, 30 and 60 minutes. The final mixture contained 1 μg/mL of drug and 0.5 mg/mL of liver matrix. First, 50 μL of test articles in liver matrix was added to the 96-DWP and pre-warmed the mixture in the 96-DWP for 2 minutes in the 37° C. water bath. The enzymatic reaction was started by the addition of 50 μL of the corresponding 2× NADPH regenerating system (NRS) cofactor solution to all sample wells and stopped by the addition of 300 μL of stop solution (acetonitrile containing 10 ng/mL Tolbutamide as an internal standard (I.Std.). The samples were agitated for 10 minutes and then centrifuged for 20 minutes at 4500 rpm. 25 μL of supernatant was diluted with 475 μL acetonitrile containing I. Std. into a new 96-DWPs for LC-MS/MS analysis.
(§2) Half-life calculations were generated and calculated by Graphpad Prism® software. The half-life of test compound was calculated based on the first-order reaction kinetics. The data was transformed to linear regression (y=log(y) where “y” axis represents the % compound remaining at any given time with respect to time 0 minutes; “x” axis represents time in minutes) in order to calculate the half-life.
(§3) A comparison of metabolic stability in time-course incubation experiments in varying species of liver can provide information of pharmacokinetic properties of drugs attributable to species-related differences in hepatic metabolism. The results of these experiments often assist in further applications such as assessing in vitro metabolite profiling and choosing relevant species for toxicology studies based on similarities relative to the metabolic stability to the human profile. For these experiments, the test compound was tested in parallel with a positive control, Dasatinab, in an enzymatic reaction solution of each species (human and rat) of liver microsomes containing a NADPH regenerating system (NRS). The final mixture contained 1 μg/mL of drug and 0.5 mg/mL of liver matrix. Incubations were performed at 37±2° C. with gentle, continuous mixing in shaking water bath in 96-Deep well plates. The stability of the test compound is monitored using fast, specific and sensitive LC/MS/MS analysis.
On the technique in general: Microsomes from liver hold many membrane-bound enzymes, among them those of drug oxidation.

Series [2] in a line: In-vitro half-life in mouse liver microsomes. The format is in vitro ADME. To be noted: Mouse liver microsomes 0.5 mg/mL; 1 μg/mL drug; NRS; read-out: Metabolic Half-life. Here is the method: as §1, §2, §3
Series [3] has as its system HT-29 colorectal cancer cells. Kind of series: HT-29 cell viability (Real-Time-Glo). The format is cell-based. To be noted: luminescence at 72 h. Here is the method: Equal volume of 2× RealTime-Glo™ reagent (2 μl of MT Cell Viability Substrate 1,000×, and 2 μl of NanoLuc® Enzyme 1,000×, per 1 ml of media, Promega) was added to each well and cells were incubated at 37° C. Luminescence was evaluated at 72 h.
To determine the plating density for cell viability assays, for each cell line, cells were counted and diluted to final densities of 2.5, 5, 10 and 20 thousand per 100 μl of their respective growth media per well in 96 well plates. A Promega Real-Time-Glo cell viability kit was used to determine the optimal concentration for cell plating so that each cell line would be within the linear part of its growth curve after 72 hrs in culture. […] Test compounds were then added at different concentrations for the creation of six-point curve and cell density was determined using the Promega Real-Time-Glo cell viability kit after 24, 48, and 72 hrs in culture.
Specifically, the Promega Real-Time-Glo cell viability kit was used to determine the optimal concentration for cell plating so that each cell line would be within the linear part of its growth curve after 72 hrs in culture. […] Test compounds are then added at different concentrations for the creation of six-point curve and cell density is determined using the Promega Real-Time-Glo cell viability kit after 24, 48, and 72 hrs in culture. […]

The structures appear in SMILES notation. A value given as a limit tells only on which side of the number the result lay.

In general, half-life refers to how long it takes for the measured level to halve. Turning to `COc1cc2c(NC3CCS(=O)(=O)CC3)nc(N3CCCN(C)CC3)nc2cc1OCCCN1CCCC1` [Compound 110, 4-((6-methoxy-2-(4-methyl-1,4-diazepan-1-yl)-7-(3-(pyrrolidin-1-yl)propoxy)quinazolin-4-yl)amino)tetrahydro-2H-thiopyran 1,1-dioxide], the half-life at 1 μg/mL in series [1] and in series [2] was greater than 1 h each time.
With `COc1cc2c(NC3CCN(C(C)C)CC3)nc(-n3cccn3)nc2cc1OCCCN1CCCC1` [Compound 157, N-(1-isopropylpiperidin-4-yl)-6-methoxy-2-(1H-pyrazol-1-yl)-7-(3-(pyrrolidin-1-yl)propoxy)quinazolin-4-amine], the half-life at 1 μg/mL in series [1] and in series [2] was greater than 1 h in each case.
As for `COc1cc2c(NC3CCNCC3)nc(N3CCC(F)(F)CC3)nc2cc1OCCCN1CCCC1` [Compound 8, 2-(4,4-difluoropiperidin-1-yl)-6-methoxy-N-(piperidin-4-yl)-7-(3-(pyrrolidin-1-yl)propoxy)quinazolin-4-amine], the half-life at 1 μg/mL in series [1] and in series [2] was greater than 1 h throughout.
In the case of `COc1cc2c(NC3CCOCC3)nc(N3CCOCC3)nc2cc1OCCCN1CCCC1` [Compound 195, 6-methoxy-2-morpholino-7-(3-(pyrrolidin-1-yl)propoxy)-N-(tetrahydro-2H-pyran-4-yl)quinazolin-4-amine], the half-life at 1 μg/mL in series [1] and in series [2] was greater than 1 h in each case.
Regarding `COc1cc2c(NCC3CCN(C)CC3)nc(N3CCC(F)(F)CC3)nc2cc1OCCCN1CCCC1` [Compound 5, 2-(4,4-difluoropiperidin-1-yl)-6-methoxy-N-((1-methylpiperidin-4-yl)methyl)-7-(3-(pyrrolidin-1-yl)propoxy)quinazolin-4-amine], the half-life at 1 μg/mL in series [1] and in series [2] was greater than 1 h throughout.
Consider `COc1cc2c(NC3CCS(=O)(=O)CC3)nc(N3CCC(F)(F)CC3)nc2cc1C#CCN1CCCC1` [Compound 248, 4-((2-(4,4-difluoropiperidin-1-yl)-6-methoxy-7-(3-(pyrrolidin-1-yl)prop-1-yn-1-yl)quinazolin-4-yl)amino)tetrahydro-2H-thiopyran 1,1-dioxide], for which the figures for the half-life at 1 μg/mL in series [1] and in series [2] were 0.63 h and greater than 1 h, respectively.
Take `COc1cc2c(NCC(N)=O)nc(N3CCC(F)(F)CC3)nc2cc1OCCCN1CCCC1` [Compound 9, 2-((2-(4,4-difluoropiperidin-1-yl)-6-methoxy-7-(3-(pyrrolidin-1-yl)propoxy)quinazolin-4-yl)amino)acetamide]: the half-life at 1 μg/mL in series [1] and in series [2] was greater than 1 h throughout.
For `COc1cc2c(NC3CCOCC3)nc(N3CCS(=O)(=O)CC3)nc2cc1OCCCN1CCCC1` [Compound 196, 4-(6-methoxy-7-(3-(pyrrolidin-1-yl)propoxy)-4-((tetrahydro-2H-pyran-4-yl)amino)quinazolin-2-yl)thiomorpholine 1,1-dioxide], the half-life at 1 μg/mL in series [1] and in series [2] was greater than 1 h throughout.
Consider `COc1cc2c(NC3CCS(=O)(=O)CC3)nc(N3CCC(F)(F)CC3)nc2cc1OCCCN1CCCC1` [Compound 1, 4-((2-(4,4-difluoropiperidin-1-yl)-6-methoxy-7-(3-(pyrrolidin-1-yl)propoxy)quinazolin-4-yl)amino)tetrahydro-2H-thiopyran 1,1-dioxide], for which the “growth of HT-29 colorectal cancer cells” value in series [3] was “potent anti-cancer activity”. In addition, the half-life at 1 μg/mL in series [1] and in series [2] was greater than 1 h throughout.
Take `COc1cc2c(NC3CCS(=O)(=O)CC3)nc(N3CCN(C)CC3)nc2cc1OCCCN1CCCC1` [Compound 109, 4-((6-methoxy-2-(4-methylpiperazin-1-yl)-7-(3-(pyrrolidin-1-yl)propoxy)quinazolin-4-yl)amino)tetrahydro-2H-thiopyran 1,1-dioxide]: the half-life at 1 μg/mL in series [1] was 0.342 h; in series [2] it was greater than 1 h.
As for `COc1cc2c(Nc3ccncc3)nc(-n3ccnc3)nc2cc1OCCCN1CCCC1` [Compound 130, 2-(1H-imidazol-1-yl)-6-methoxy-N-(pyridin-4-yl)-7-(3-(pyrrolidin-1-yl)propoxy)quinazolin-4-amine], the results for the half-life at 1 μg/mL in series [1] and in series [2] were greater than 1 h and 0.535 h, respectively.
For `COc1cc2c(NC3COC3)nc(N3CCC(F)(F)CC3)nc2cc1OCCCN1CCCC1` [Compound 11, 2-(4,4-difluoropiperidin-1-yl)-6-methoxy-N-(oxetan-3-yl)-7-(3-(pyrrolidin-1-yl)propoxy)quinazolin-4-amine] the same measures were greater than 1 h and greater than 1 h.
The corresponding values for `COc1cc2c(NC3CCOCC3)nc(N3CCCN(C)CC3)nc2cc1OCCCN1CCCC1` [Compound 237, 6-methoxy-2-(4-methyl-1,4-diazepan-1-yl)-7-(3-(pyrrolidin-1-yl)propoxy)-N-(tetrahydro-2H-pyran-4-yl)quinazolin-4-amine] are greater than 1 h and 0.44 h.
In the case of `COc1cc2c(N[C@H]3CCCNC3)nc(N3CCCC3)nc2cc1OCCCN1CCCC1` [Compound 158, (S)-6-methoxy-N-(piperidin-3-yl)-2-(pyrrolidin-1-yl)-7-(3-(pyrrolidin-1-yl)propoxy)quinazolin-4-amine], the half-life at 1 μg/mL in series [1] is greater than 1 h; in series [2], 0.637 h.
For `COc1cc2c(NC3CCS(=O)(=O)CC3)nc(N3CCCC3)nc2cc1OCCCN1CCCC1` [Compound 80, 4-((6-methoxy-2-(pyrrolidin-1-yl)-7-(3-(pyrrolidin-1-yl)propoxy)quinazolin-4-yl)amino)tetrahydro-2H-thiopyran 1,1-dioxide] the same measures were greater than 1 h and greater than 1 h.
Take `COc1cc2c(NC3CCS(=O)(=O)CC3)nc(N3CCS(=O)(=O)CC3)nc2cc1OCCCN1CCCC1` [Compound 103, 4-(4-((1,1-dioxidotetrahydro-2H-thiopyran-4-yl)amino)-6-methoxy-7-(3-(pyrrolidin-1-yl)propoxy)quinazolin-2-yl)thiomorpholine 1,1-dioxide]: the half-life at 1 μg/mL in series [1] and in series [2] was greater than 1 h in each case.
In the case of `COc1cc2c(NC3CCS(=O)(=O)CC3)nc(N3CCOCC3)nc2cc1OCCCN1CCCC1` [Compound 102, 4-((6-methoxy-2-morpholino-7-(3-(pyrrolidin-1-yl)propoxy)quinazolin-4-yl)amino)tetrahydro-2H-thiopyran 1,1-dioxide], the half-life at 1 μg/mL in series [1] and in series [2] was greater than 1 h each time.
Turning to `COc1cc2c(N[C@@H]3CCCNC3)nc(N3CCCC3)nc2cc1OCCCN1CCCC1` [Compound 159, (R)-6-methoxy-N-(piperidin-3-yl)-2-(pyrrolidin-1-yl)-7-(3-(pyrrolidin-1-yl)propoxy)quinazolin-4-amine], the half-life at 1 μg/mL in series [1] was greater than 1 h; in series [2], 0.655 h.
In the case of `COc1cc2c(NC3CCOCC3)nc(N3CCN(C)CC3)nc2cc1OCCCN1CCCC1` [Compound 236, 6-methoxy-2-(4-methylpiperazin-1-yl)-7-(3-(pyrrolidin-1-yl)propoxy)-N-(tetrahydro-2H-pyran-4-yl)quinazolin-4-amine], the figures for the half-life at 1 μg/mL in series [1] and in series [2] were greater than 1 h and 0.38 h, respectively.
